From US20120028917A1, “Use Of N-(4-((3-(2-Amino-4-Pyrimidinyl)-2-Pyridinyl)Oxy)Phenyl)-4-(4-Methyl-2-Thienyl)-1-Phthalazinamine In The Treatment Of Antimitotic Agent Resistant Cancer” (Amgen Inc., priority 2009, published 2012)

How the values were obtained:
HCT116 AZD1152-resistant = test: ≧4N DNA content assay (FIG. 6-A); format: cell-based; conditions: Homo sapiens, HCT-116; HCT116 AZD1152-resistant subline; 24 hours; read-out: cellular ≧4N DNA content EC50
Description: Tumor cell lines were obtained from the American Type Culture Collection (ATCC) unless otherwise specified. The MDA-MB-231-PTX and NCI-H460-PTX cell lines were established by growing the cells in the presence of increasing concentrations of paclitaxel over a period of 6 months. The HCT116 AZD1152-resistant cell line was established by growing the cells in the presence of AZD1152 at 80 nmol/L.
Tumor cells were treated with AMG 900, AZD1152, MK-0457, or PHA-739358 (range concentration varied based on potency) for 24 hours and processed for cell-cycle analysis (DNA staining only) as previously described (1). Cells were analyzed on a LSRII flow cytometer using BD FACS Diva software. The concentration-response curves and corresponding EC50 values were calculated using the percentage of cells with ≧4N DNA content versus the DMSO control.
HCT116 cell lines were treated with increasing concentrations of AMG 900 or AZD1152 for 24 hours. Flow cytometry was used to assess the accumulation of cells with ≧4N DNA content expressed as a percentage of the DMSO-treated control (POC). The concentration-response curves and calculated EC50 values were determined from two independent experiments (bars, ±SD).

MDA-MB-231 xenograft = test: Xenograft tumor growth inhibition (Example 3); format: in vivo, athymic nude mice; conditions: MDA-MB-231, Breast; oral BID, best of intermittent or continuous dose schedule
Description: (§1) To investigate whether AMG 900-induced suppression of aurora kinase activity inhibits cell proliferation, the antiproliferative efficacy of AMG 900 was evaluated in-vivo in multiple human cancer xenograft models, including breast, colon, leukemia, lung, pancreatic, and uterine cancer models, grown in athymic nude mice. Mice were administered AMG 900 orally at 3.75, 7.5, or 15 mg/kg BID for 2 consecutive days per week or 3 mg/kg BID everyday for the duration of the study beginning when tumors were established. The reagents, solutions, equipment, formulation of AMG 900, tumor volume measurements and calculations were generally as described in Example 4 below.

HL60 xenograft = test: Xenograft tumor growth inhibition (Example 3); format: in vivo, athymic nude mice; conditions: HL60, Leukemia; oral BID, best of intermittent or continuous dose schedule
Description: as §1

Colo 205 xenograft = test: Xenograft tumor growth inhibition (Example 3); format: in vivo, athymic nude mice; conditions: Colo 205, Colon; oral BID, best of intermittent or continuous dose schedule
Description: as §1

MES-SA xenograft = test: Xenograft tumor growth inhibition (Example 3); format: in vivo, athymic nude mice; conditions: Uterine, oral BID, best of intermittent or continuous dose schedule
Description: as §1

HCT 116 xenograft = test: Xenograft tumor growth inhibition (Example 3); format: in vivo, athymic nude mice; conditions: HCT 116, Colon; oral BID, best of intermittent or continuous dose schedule
Description: as §1

MiaPaCa2 xenograft = test: Xenograft tumor growth inhibition (Example 3); format: in vivo, athymic nude mice; conditions: MiaPaCa2, Pancreas; oral BID, best of intermittent or continuous dose schedule
Description: as §1

NCI-H460 xenograft = test: Xenograft tumor growth inhibition (Example 3); format: in vivo, athymic nude mice; conditions: NCI-H460, Lung; oral BID, best of intermittent or continuous dose schedule
Description: as §1

NCI-H460 = test: Cell cycle DNA content assay (flow cytometry); format: cell-based; conditions: Homo sapiens, 24 h; NCI-H460, Lung, Parent line; read-out: EC50 @ 24 hours, ≧4N DNA content
Description: NCI-H460 parental and NCI-H460 taxol-resistant cells were seeded at a density of 500,000 cells/well in a 6-well plate in 2 mL of appropriate complete media. The next day cells were treated with AMG 900 or taxol over a 6-point concentration range with a final DMSO concentration of 0.05% in media. After 24 hours, cells were pulsed with BrdU (1:100 dilution) and harvested. Cells were centrifuged at 1600 rpm for 4 minutes and the supernatant was aspirated. Cells were washed in 1× PBS and fixed in 900 μL of ice cold 90% methanol and stored at −20° C. Fixed cells were centrifuged at 2000 rpm for 4 minutes to remove 90% methanol. Cells were washed with 200 μL of wash buffer and stained with 200 μL of propidium iodide (PI) overnight at 4° C. in the dark. Data was acquired and analyzed by flow cytomety (LSRII). A threshold gate was applied according to +4N (same as ≧4N) DNA content and SubG1 positive populations based on DMSO-treated control and low/high drug-treated groups. The data was represented as a percentage of +4N DNA and SubG1 positive subpopulations. The +4N (same as ≧4N) DNA content or SubG1 cellular EC50 values were calculated using a 4-parameter equation. Lung tumor cell lines were treated with control (DMSO), AMG 900 or taxol over a 6-point dose range for 24 hours. Flow cytometric-based cell cycle analysis was performed to measure the percentage of ≧4N DNA content or SubG1 DNA content positive cells. The dose-response curves for AMG 900 represent the drug concentration plotted against the percentage of ≧4N DNA content positive cells. The dose-response curves for taxol represent the drug concentration plotted against the percentage of SubG1 DNA content positive cells. The EC50 values were calculated by 4-parameter fit model.

EC50 (HCT116 AZD1152-resistant): 5 nM
EC50 (NCI-H460): 1 nM
SMILES: Cc1csc(-c2nnc(Nc3ccc(Oc4ncccc4-c4ccnc(N)n4)cc3)c3ccccc23)c1 [AMG 900, N-(4-((3-(2-amino-4-pyrimidinyl)-2-pyridinyl)oxy)phenyl)-4-(4-methyl-2-thienyl)-1-phthalazinamine]
% TGI (tumor growth inhibition) (MDA-MB-231 xenograft): 82%
% TGI (tumor growth inhibition) (HL60 xenograft): 68%
% TGI (tumor growth inhibition) (Colo 205 xenograft): 58%
% TGI (tumor growth inhibition) (MES-SA xenograft): 86%
% TGI (tumor growth inhibition) (HCT 116 xenograft): 83%
% TGI (tumor growth inhibition) (MiaPaCa2 xenograft): 62%
% TGI (tumor growth inhibition) (NCI-H460 xenograft): 85%
